The test system of one test is Gli1 mRNA in Smo−/− MEFs. The test can be described thus: Gli1 mRNA (qRT-PCR) in Smo−/− MEFs. The test is classed as cell-based, mouse. The settings on record: 24 h and/or 48 h. On the procedure: HEK293T and Smo^−/−, Ptch^−/− MEFs cells were cultured in DMEM plus 10% FBS, 1% L-glutamine and antibiotics. Transient transfections were performed using DreamFectTM Gold transfection reagent (Oz Biosciences SAS, Marseille, France) following the manufacturer’s instructions and for varying periods of time depending on the experiment (24–72 h). […] Vehicle (DMSO) was used as control.
Total RNA was isolated with Trizol (Invitrogen/Life Technologies, Carlsbad, CA, USA) from Smo^−/− MEFs, Ptch^−/− MEFs or HT29 cells treated for 24 h and/or 48 h with 4s at different concentrations and reverse transcribed with the SensiFAST cDNA Synthesis Kit (Bioline Reagents Limited, London, UK). Quantitative real-time PCR (Q-PCR) analysis of Gli1 and housekeeping (HPRT, TBP, HMBS) mRNA levels was performed on each cDNA sample using the VIIA7 Real Time PCR System employing Assay-on-Demand Reagents (Life Technologies) as previously described. […] Each amplification reaction was performed in triplicate, the average of the three threshold cycles was used to calculate the amount of transcript in the sample (using SDS version 2.3 Software). mRNA quantification was expressed in arbitrary units as the ratio of the sample quantity to the quantity of the calibrator (ΔCt method). […]
(In general: Real-time PCR tracks product formation cycle by cycle.)

A further test relates to HT29 cells. As to the kind of experiment: Annexin V-FITC/PI assay, HT29. The test is classed as cell-based, human. The settings on record: for early apoptosis (II): 19 µM, 3 or 12 h, untreated control 2.7%. Here is the method:
HT29 cells were seeded in a 12-well plate (5 × 10^5 cells per well) and incubated overnight in DMEM F12. […] The cells were collected and then processed for apoptosis analysis using the Annexin-V/PI Alexa Fluor 488 Apoptosis Kit (Invitrogen, Waltham, MA, USA) according to the manufacturer’s instructions. Finally, cells were analysed by flow cytometry (BD; FACS Canto II, Mountain View, CA, USA) and data were processed using the FCS Express v6 software. Three independent replicates were performed.

For a further test, the system named is Daoy. The test can be described thus: MTT cytotoxicity assay, Daoy. The test is classed as cell-based, human. The settings on record: Homo sapiens, Daoy, 72 h, MTT; for cytotoxicity at 50 µM: read-out: % Cytotoxicity (50 µM) DAOY. In general terms: Tetrazolium dyes change colour on reduction, which living cells bring about.
For test [1], the system named is HT29. The test can be described thus: MTT cytotoxicity assay, HT29. The settings on record: Homo sapiens, HT-29, 72 h, MTT; for cytotoxicity at 50 µM: read-out: % Cytotoxicity (50 µM) HT29; for IC50: 0.05–50 µM. The test is classed as cell-based. On the procedure: (§1) Cytotoxicity assays were performed by using the MTT reduction method as described previously. Briefly, cancer cell lines were plated in flat-bottom 96-well plates at a cell concentration of 5 × 10^3 cells/well for the fastest growing lines, such as HEK293 and HT29 cells and 1 × 10^4 cells/well for more slowly growing lines, such as HCT116, H1975, BxPC-3, AsPC-1, B16-F10 and DAOY. Then, cells were incubated with the synthesised compounds at different concentrations (from 0.05 to 50 µM) in 200 µL with 10% FBS in RPMI 1640 or DMEM F12 culture medium at 37 °C for 72 h. Later, 10 µL of MTT were added at a final concentration of 0.5 mg/mL, incubated at 37 °C for 4 h, and then solubilised with 10% sodium dodecyl sulphate (SDS) in 0.1 mM HCl and incubated overnight at 37 °C. Formazan formation was measured at 570 nm in a multiwell plate reader (Cytation 5, Biotek Instruments, Winooski, VT, USA). Three independent biological replicates were performed.

The subject of a further test is AsPC-1. The test can be described thus: MTT cytotoxicity assay, AsPC-1. The test is classed as cell-based. The settings on record: Homo sapiens, ASPC1, 72 h, 0.05–50 µM. Here is the method:
as §1

The next test has as its system HCT116. As to the kind of experiment: Colony formation assay, HCT116. The test is classed as cell-based, human. The settings on record: 5 µM, 14 d. Here is the method:
HT29, HCT116, H1975 and HEK293 cells were seeded in a 6-well plate (1 × 10^4 cells per well) and incubated overnight in DMEM F12 supplemented with 10% FBS. […] After 72 h, the medium was replaced by fresh medium without stimuli, and cells were incubated for an additional 14 d to permit colony formation. The cells were fixed during 30 min with PFA 4% (v/v), washed and stained for 30 min at RT with a 5% solution of violet crystal for final colony counting. Three independent replicates were performed.

The subject of a further test is H1975. The test can be described thus: MTT cytotoxicity assay, H1975. The test is classed as cell-based. The settings on record: Homo sapiens, NCI-H1975, 72 h, MTT; for cytotoxicity at 50 µM: read-out: % Cytotoxicity (50 µM) H1975; for IC50: 0.05–50 µM. Here is the method:
as §1

The subject of test [2] is HT29. The test can be described thus: CFSE proliferation assay, HT29. The test is classed as cell-based, human. The settings on record: 19 µM, 48 h. On the procedure: HT29 and HEK293 cells were resuspended at 1 × 10^6/mL in DMEM F12 without FBS. A 5 mM CFSE stock solution carboxyfluorescein diacetate succinimidyl ester (Cell Proliferation Kit, Life Technologies, Carlsbad, CA, USA) in DMSO was added to a final concentration of 5 µM and incubated at 37 °C for 15 min protected from light. At the end of the incubation period, the cells were immediately washed twice in cold PBS 1X/no-FBS. Cells were washed three times in PBS 1×/10%-FBS and resuspended in the same medium and plated in 12-well plates at a density of 1 × 10^5 cells/200 µL medium and grown overnight at 37 °C in a 5% CO2 humidified atmosphere. […] The cells were collected and then analysed by flow cytometry (BD; FACScanto II, Mountain View, CA, USA) and data were processed using FCS Express v6 software. Two independent biological replicates were performed.

The subject of the next test is BxPC-3. The test can be described thus: MTT cytotoxicity assay, BxPC-3. The test is classed as cell-based. The settings on record: Homo sapiens, 72 h, 0.05–50 µM. Here is the method:
as §1

Test [3] concerns HT29. The test can be described thus: Cell cycle analysis (PI, flow cytometry), HT29. The test is classed as cell-based, human. The settings on record: 19 µM, 24 h, compared to the control. On the procedure: HT29 and HEK293 cells were plated in 6-well plates at a density of 2.0 × 10^5 cells/1.5 mL/well and grown overnight at 37 °C in a 5% CO2 humidified atmosphere. […] Aliquots of cells were collected, pelleted, washed, and fixed with ethanol (70% v/v) for at least 30 min at 4 °C. Cells were resuspended twice in PBS and, after centrifugation and elimination of the supernatant, they were finally resuspended in a PBS solution containing propidium iodide (PI; […], Invitrogen), RNase A ([…], Invitrogen). After a final incubation for 1 h in the dark at 37 °C, the PI signal was measured using a FACS Canto II Flow-cytometer (BD; Mountain View, CA) with a 488 nm excitation laser, captured and FACS DIVA was used as the acquisition software. The percentage of cells in each phase was analysed using the FCS Express v6 software. Two independent biological replicates were performed.
Background: A flow cytometer gives signals particle by particle.

The term IC50 denotes the midpoint of a concentration-inhibition curve. Take `CS(=O)(=O)c1ccc(C(=O)Nc2ccc(Cl)c(-c3ccccn3)c2)c(Cl)c1` [Vismodegib, reference compound]: the “GLI1 mRNA levels in Smo−/− MEFs” value with Gli1 mRNA in Smo−/− MEFs is listed as “did not affect the mRNA levels of GLI1”. For the same compound, in the test with HT29 cells, the “early apoptosis (II)” value is on record as “no statistically significant differences”. Moreover, the IC50 in the test with Daoy (0.05–50 µM), in the test on HT29 [1], with AsPC-1, with H1975 and in the test on BxPC-3 was more than 50 µM throughout. Further, the cytotoxicity at 50 µM in the test on Daoy was less than 50%; in the test with HT29 [1], less than 50%; in the test on H1975, 53 ± 1.2%. Besides, in the test with HCT116, the “colony formation HCT116” value was “less effective than 4s”. The “HT29 cell proliferation (CFSE)” value with HT29 [2] is “less effect on reducing proliferation than 4s”. The “increase of the G1/G0 phase” value in the test with HT29 [3] was determined as 10%.

Consider `CCCCCCn1cnc2c(-c3ccc(OC(F)(F)F)cc3)nc(N3CCN(c4ccncc4)CC3)nc21` [Compound 4s, 9-Hexyl-2-(4-(pyridin-4-yl)piperazin-1-yl)-6-(4-(trifluoromethoxy)phenyl)-9H-purine], for which, in the test with Gli1 mRNA in Smo−/− MEFs, the “GLI1 mRNA levels in Smo−/− MEFs” value is given as “did not affect the mRNA levels of GLI1”. Moreover, the “early apoptosis (II)” value with HT29 cells worked out at 64.6%. For the same compound, the viability at 19 µM with HT29 cells (Homo sapiens, HT-29, 3 or 12 h, control around 95.7%, read-out: cell viability (Annexin V-FITC/PI)) is approximately 33.8%. Moreover, the cytotoxicity at 50 µM was determined as 98 ± 0.3% in the test with Daoy, 25 ± 2.7% in the test on HT29 [1] and 99 ± 0.2% in the test on H1975. In addition, the IC50 with HT29 [1] was 15 ± 1.2 µM; with AsPC-1, 1.7 ± 0.05 µM; in the test on H1975 it was 1.5 ± 0.3 µM; with BxPC-3, 4.1 ± 0.9 µM. Besides, the “colony formation HCT116” value with HCT116 is “totally inhibited the formation of colonies”. The “HT29 cell proliferation (CFSE)” value in the test with HT29 [2] was “significantly reduced HT29 cell proliferation”. Further, the “decrease in S phase” value in the test with HT29 [3] is 12%. For the same compound, the “increase of the G1/G0 phase” value in the test with HT29 [3] was found to be 24%.
